2 molecules from BindingDB's records for doi:10.7270/Q2NS0SBF (Burnham Center For Chemical Genomics, 2010) can be followed below.

This assay deals with Mu-type opioid receptor (Homo sapiens, UniProt P35372). Briefly: MOR agonists by imaging, SAR follow-up, image-based (AID 2352).

The structures appear in SMILES notation.

Chain of Mu-type opioid receptor (P35372 whole entry): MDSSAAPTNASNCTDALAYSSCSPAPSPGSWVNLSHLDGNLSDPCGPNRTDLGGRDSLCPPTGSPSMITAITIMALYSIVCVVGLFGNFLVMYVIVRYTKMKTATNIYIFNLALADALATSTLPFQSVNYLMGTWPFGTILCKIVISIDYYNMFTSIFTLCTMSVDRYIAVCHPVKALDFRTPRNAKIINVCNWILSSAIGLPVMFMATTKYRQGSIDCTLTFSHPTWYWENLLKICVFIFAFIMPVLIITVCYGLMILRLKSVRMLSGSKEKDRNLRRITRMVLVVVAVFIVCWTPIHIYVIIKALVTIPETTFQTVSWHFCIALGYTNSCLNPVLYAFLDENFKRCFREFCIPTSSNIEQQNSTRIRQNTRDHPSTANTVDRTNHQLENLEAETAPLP

Consider `CCC(N=Nc1ccnc2cc(Cl)ccc12)c1ccc(O)cc1` (configuration not stated) [4-[1-[2-(7-chloroquinolin-4-yl)hydrazinyl]propylidene]cyclohexa-2,5-dien-1-one], for which the EC50 stood at 25.3 µM.

With `Oc1ccc(CN=Nc2ccnc3cc(Cl)ccc23)cc1O` [(4Z)-4-[[2-(7-chloroquinolin-4-yl)hydrazinyl]methylidene]-2-hydroxycyclohexa-2,5-dien-1-one], the EC50 was greater than 32 µM.
